# Data: PubChem BioAssay (NCI)
#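 Each compound was tested at five concentrations against cells in 96-well plates for 48 hours. The concentration for 50% growth inhibition is given as GI50. TGI is the concentration that stops growth completely.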
# Experiments:
# Assay in all cases: NCI tumour cell line growth inhibition, 48 h
# HOP-62 NSCLC = system: HOP-62 NSCLC
# HCT-116 colon = system: HCT-116 colon
# A498 renal = system: A498 renal
# HCT-15 colon = system: HCT-15 colon
# IGROV1 ovarian = system: IGROV1 ovarian
# DU-145 prostate = system: DU-145 prostate
# SR leukemia = system: SR leukemia
# NCI-H522 lung = system: NCI-H522 lung
# UACC-62 melanoma = system: UACC-62 melanoma
# BT-549 breast = system: BT-549 breast
# 786-0 renal = system: 786-0 renal
# NCI-H23 lung = system: NCI-H23 lung
# COLO 205 colon = system: COLO 205 colon
# OVCAR-5 ovarian = system: OVCAR-5 ovarian
# SK-MEL-2 melanoma = system: SK-MEL-2 melanoma
# NCI-H226 lung = system: NCI-H226 lung
# EKVX NSCLC = system: EKVX NSCLC
# RXF 393 renal = system: RXF 393 renal
# K-562 leukemia = system: K-562 leukemia
# HOP-92 NSCLC = system: HOP-92 NSCLC
# SNB-19 CNS = system: SNB-19 CNS
# SF-268 CNS = system: SF-268 CNS
# SF-539 CNS = system: SF-539 CNS
# SK-MEL-28 melanoma = system: SK-MEL-28 melanoma
# MCF7 breast = system: MCF7 breast
# MDA-MB-435 = system: MDA-MB-435
# LOX IMVI melanoma = system: LOX IMVI melanoma
# NCI/ADR-RES ovarian = system: NCI/ADR-RES ovarian
# SN12C renal = system: SN12C renal
# SK-OV-3 ovarian = system: SK-OV-3 ovarian
# NCI-H460 lung = system: NCI-H460 lung
# TK-10 renal = system: TK-10 renal
# MDA-MB-468 breast = system: MDA-MB-468 breast
# OVCAR-4 ovarian = system: OVCAR-4 ovarian
# MALME-3M melanoma = system: MALME-3M melanoma
# SK-MEL-5 melanoma = system: SK-MEL-5 melanoma
# UO-31 renal = system: UO-31 renal
# ACHN renal = system: ACHN renal
# RPMI-8226 leukemia = system: RPMI-8226 leukemia
# U251 CNS = system: U251 CNS
# HL-60(TB) leukemia = system: HL-60(TB) leukemia
# MDA-MB-231 breast = system: MDA-MB-231 breast
# HT29 colon = system: HT29 colon
# OVCAR-3 ovarian = system: OVCAR-3 ovarian
# HCC-2998 colon = system: HCC-2998 colon
# HS 578T breast = system: HS 578T breast
# SF-295 CNS = system: SF-295 CNS
# SW-620 colon = system: SW-620 colon
# CAKI-1 renal = system: CAKI-1 renal
# CCRF-CEM leukemia = system: CCRF-CEM leukemia
# A549 NSCLC = system: A549 NSCLC
# M14 melanoma = system: M14 melanoma
# OVCAR-8 ovarian = system: OVCAR-8 ovarian
# T-47D breast = system: T-47D breast
# PC-3 prostate = system: PC-3 prostate
# UACC-257 melanoma = system: UACC-257 melanoma
structure (smiles),measurement,setting,value
COc1cc(/C=C/C(=O)c2ccc(S(=O)(=O)NCCNc3nc(Nc4ccc(F)cc4)nc(N(C)C)n3)cc2)cc(OC)c1OC,GI50,HOP-62 NSCLC,14.1 µM
same,TGI,HOP-62 NSCLC,29 µM
same,GI50,HCT-116 colon,1.77 µM
same,TGI,HCT-116 colon,3.68 µM
same,GI50,A498 renal,11.3 µM
same,TGI,A498 renal,23.8 µM
same,GI50,HCT-15 colon,1.8 µM
same,TGI,HCT-15 colon,3.44 µM
same,GI50,IGROV1 ovarian,16.1 µM
same,TGI,IGROV1 ovarian,31 µM
same,GI50,DU-145 prostate,10.9 µM
same,TGI,DU-145 prostate,34.3 µM
same,GI50,SR leukemia,2.42 µM
same,TGI,SR leukemia,7.6 µM
same,GI50,NCI-H522 lung,6.45 µM
same,TGI,NCI-H522 lung,20.1 µM
same,GI50,UACC-62 melanoma,8.28 µM
same,TGI,UACC-62 melanoma,21.4 µM
same,GI50,BT-549 breast,2.25 µM
same,TGI,BT-549 breast,7.52 µM
same,GI50,786-0 renal,2.94 µM
same,TGI,786-0 renal,12 µM
same,GI50,NCI-H23 lung,3.03 µM
same,TGI,NCI-H23 lung,10.9 µM
same,GI50,COLO 205 colon,4.78 µM
same,TGI,COLO 205 colon,19.2 µM
same,GI50,OVCAR-5 ovarian,12.9 µM
same,TGI,OVCAR-5 ovarian,26.8 µM
same,GI50,SK-MEL-2 melanoma,13.5 µM
same,TGI,SK-MEL-2 melanoma,28.3 µM
same,GI50,NCI-H226 lung,4.47 µM
same,TGI,NCI-H226 lung,31.9 µM
same,GI50,EKVX NSCLC,4.85 µM
same,TGI,EKVX NSCLC,16.3 µM
same,GI50,RXF 393 renal,1.45 µM
same,TGI,RXF 393 renal,3.12 µM
same,GI50,K-562 leukemia,2.73 µM
same,TGI,K-562 leukemia,> 100 µM
same,GI50,HOP-92 NSCLC,11.5 µM
same,TGI,HOP-92 NSCLC,37.7 µM
same,GI50,SNB-19 CNS,11.2 µM
same,TGI,SNB-19 CNS,23.4 µM
same,GI50,SF-268 CNS,11.7 µM
same,TGI,SF-268 CNS,63.7 µM
same,GI50,SF-539 CNS,1.71 µM
same,TGI,SF-539 CNS,3.18 µM
same,GI50,SK-MEL-28 melanoma,6.13 µM
same,TGI,SK-MEL-28 melanoma,19.3 µM
same,GI50,MCF7 breast,1.96 µM
same,TGI,MCF7 breast,4.28 µM
same,GI50,MDA-MB-435,2.8 µM
same,TGI,MDA-MB-435,7.68 µM
same,GI50,LOX IMVI melanoma,1.71 µM
same,TGI,LOX IMVI melanoma,3.1 µM
same,GI50,NCI/ADR-RES ovarian,3.38 µM
same,TGI,NCI/ADR-RES ovarian,13.4 µM
same,GI50,SN12C renal,5.71 µM
same,TGI,SN12C renal,21.5 µM
same,GI50,SK-OV-3 ovarian,21.8 µM
same,TGI,SK-OV-3 ovarian,58.9 µM
same,GI50,NCI-H460 lung,5.12 µM
same,TGI,NCI-H460 lung,17.8 µM
same,GI50,TK-10 renal,13.1 µM
same,TGI,TK-10 renal,40.9 µM
same,GI50,MDA-MB-468 breast,2 µM
same,TGI,MDA-MB-468 breast,4.58 µM
same,GI50,OVCAR-4 ovarian,8.02 µM
same,TGI,OVCAR-4 ovarian,63.4 µM
same,GI50,MALME-3M melanoma,11.9 µM
same,TGI,MALME-3M melanoma,25.7 µM
same,GI50,SK-MEL-5 melanoma,3.39 µM
same,TGI,SK-MEL-5 melanoma,12.8 µM
same,GI50,UO-31 renal,4.45 µM
same,TGI,UO-31 renal,17 µM
same,GI50,ACHN renal,5.13 µM
same,TGI,ACHN renal,19.8 µM
same,GI50,RPMI-8226 leukemia,2.5 µM
same,TGI,RPMI-8226 leukemia,7.69 µM
same,GI50,U251 CNS,1.81 µM
same,TGI,U251 CNS,3.54 µM
same,GI50,HL-60(TB) leukemia,2.64 µM
same,TGI,HL-60(TB) leukemia,9.4 µM
same,GI50,MDA-MB-231 breast,4.41 µM
same,TGI,MDA-MB-231 breast,21 µM
same,GI50,HT29 colon,1.93 µM
same,TGI,HT29 colon,3.53 µM
same,GI50,OVCAR-3 ovarian,6.18 µM
same,TGI,OVCAR-3 ovarian,26.4 µM
same,GI50,HCC-2998 colon,1.62 µM
same,TGI,HCC-2998 colon,3 µM
same,GI50,HS 578T breast,8.24 µM
same,TGI,HS 578T breast,46.7 µM
same,GI50,SF-295 CNS,2.16 µM
same,TGI,SF-295 CNS,4.73 µM
same,GI50,SW-620 colon,1.95 µM
same,TGI,SW-620 colon,3.8 µM
same,GI50,CAKI-1 renal,5.2 µM
same,TGI,CAKI-1 renal,35.6 µM
same,GI50,CCRF-CEM leukemia,3.62 µM
same,TGI,CCRF-CEM leukemia,> 100 µM
same,GI50,A549 NSCLC,12.2 µM
same,TGI,A549 NSCLC,30.9 µM
same,GI50,M14 melanoma,3.28 µM
same,TGI,M14 melanoma,11.5 µM
same,GI50,OVCAR-8 ovarian,11.1 µM
same,TGI,OVCAR-8 ovarian,34.7 µM
same,GI50,T-47D breast,3.48 µM
same,TGI,T-47D breast,51.3 µM
same,GI50,PC-3 prostate,3.22 µM
same,TGI,PC-3 prostate,30.7 µM
same,GI50,UACC-257 melanoma,15.1 µM
same,TGI,UACC-257 melanoma,31.4 µM
